The record followed here is patent publication US11390625B2, “Aryl-phosphorus-oxygen compound as EGFR kinase inhibitor” (Chia Tai Tianqing Pharmaceutical Group Co., Ltd., priority 2017, dated 2022).

The structures appear in SMILES notation. Where only a bound is given, the exact number is not on record here.

Test [1] relates to Ba/F3 (Δ19del/T790M/C797S) xenograft. The test can be described thus: In vivo efficacy (1): Ba/F3 (Δ19del/T790M/C797S) subcutaneous xenograft (CDX) in BALB/c nude mice.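 Note: female nude mice, dosing begun at mean tumor size near 80–120 mm^3, tumors measured by caliper twice weekly, volume in mm^3 computed as 0.5×long×short diameter squared.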
Protocol: BALB/c nude mice, female, 6-8 weeks old, 18-20 g of body weight, were housed in SPF-grade environment, and each cage was individually ventilated (5 mice per cage). […] A total of 48 mice purchased from Beijing Weitonglihua company were used for the study. Each mouse was implanted with cells at the right flank, for tumor growth. The experiment was started when the average tumor volume reached approximately 80-120 mm^3. […] Tumor volume was measured twice a week with a two-dimensional caliper, measured in mm^3 and calculated by the following formula: V=0.5a×b^2, wherein a and b are the long and short diameters of the tumor, respectively. Antitumor efficacy was determined by dividing the average increase of the tumor volume of the animals treated with the compound by the average increase of the tumor volume of the untreated animals.
Test [2] relates to Ba/F3 (EGFR Δ19del/T790M/C797S) cells. The test can be described thus: Anti-proliferation experiment on cells (2), Ba/F3 (EGFR Δ19del/T790M/C797S). The class given is cell-based. Particulars: for IC50: Ba/F3 EGFR, 72 h, Ba/F3 cells, 3 days, read-out: anti-proliferation effect on cells Ba/F3(Δ19del/T790M/C797S) IC50. The protocol: The compounds ware transferred to a 384-well plate, with 125 nL of compound per well. […] After 3 days, 25 μL of detection reagent was added. The plate was incubated at room temperature for 10 minutes and then read with Envision.

Test [3] deals with pEGFR Ba/F3 (EGFR Δ19del/T790M/C797S) cells. Nature of the test: Cell phosphorylation inhibition experiment, pEGFR Ba/F3 (EGFR Δ19del/T790M/C797S). The format is cell-based. As to conditions: for IC50: Ba/F3 EGFR, Ba/F3 cells, EGF stimulated, read-out: Effect on cellular EGFR phosphorylation Ba/F3(Δ19del/T790M/C797S) IC50. The protocol:
The test compounds and reference compounds were diluted with 100% DMSO to 10 mM or 1 mM, and then a gradient dilution was performed by using Echo, 150 nL per well, with a three-fold concentration gradient and a ten-point dose response curve. The final concentration of the compounds was 100 μM or 10 μM. The suspension cells was centrifuged at 1000 rp for 5 minutes, suspend in Hanks' balanced salt solution, and added to a 384-well plate containing the compounds at 10 L/120K/well (the cell density of 1.2×10^7), followed by centrifugation at 1200 rpm for 30 s and incubation at 37° C. for 30 min. 5 μL of EGF (which has been diluted with 0.1% BSA Hanks' balanced salt solution) was added to each well, in which the final concentration of EGF was 1 μM. The plate was centrifuged at 1200 rpm for 30 s and incubated at 37° C. for 20 min. 5 μL of 4× lysis buffer containing blocking solution was added to each well, and then the plate was centrifuged at 1200 rpm for 30 s, and incubated at 37° C. for 30 min.

Test [4] has as its target EGFR (Δ19del/T790M/C797S) (Homo sapiens, UniProt P00533, C797S/T790M, form not given). Nature of the test: Enzyme activity experiment (1): EGFR (Δ19del/T790M/C797S) enzyme inhibition. The class given is biochemical. Particulars: read-out: EGFR (Δ19del/T790M/C797S) IC50. The protocol:
1) 10 μL of the compounds to be tested and reference compounds diluted to 10 mM were taken into an Echo LDV plate, which were diluted according to the compound profile with Echo.
1) 1×enzyme reaction buffer was prepared: 1× enzyme buffer, 5 mM MgCl2, 1 mM DTT (dithiothreitol), water.
2) A mixed solution of 10 nM enzyme (final concentration of 5 nM) and 2 μM substrate (final concentration of 1 μM) and a solution containing the substrate alone were prepared with the diluted enzyme reaction buffer.
3) 5 μL of the substrate was added into A1-H1, J24-P24 (the number of the well position), and 5 μL of the mixture of the enzyme and substrate was added into the remaining wells.
4) Centrifugation was performed at 1000 rpm at 23° C. for 30 s.
5) Incubation was performed at 23° C. for 15 min.
7) Centrifugation was performed at 1000 rpm at 23° C. for 30 s.
8) Incubation was performed at 23° C. for 60 min.
9) 10 μL of 250 nM TK Antibody-Crypate (a final concentration of 125 nM) and 1×D2 (a final concentration ½ time) prepared with Detection buffer were added.
10) Centrifugation was performed at 1000 rpm at 23° C. for 30 s.
11) Incubation was performed at 23° C. for 60 min.
12) The data was read with Envision, and the ratio was calculated to obtain the IC50 of the compound for inhibiting the enzyme activity.

Chain of EGFR (Δ19del/T790M/C797S) (P00533 25-1210 T790M/C797S limits assumed, form open): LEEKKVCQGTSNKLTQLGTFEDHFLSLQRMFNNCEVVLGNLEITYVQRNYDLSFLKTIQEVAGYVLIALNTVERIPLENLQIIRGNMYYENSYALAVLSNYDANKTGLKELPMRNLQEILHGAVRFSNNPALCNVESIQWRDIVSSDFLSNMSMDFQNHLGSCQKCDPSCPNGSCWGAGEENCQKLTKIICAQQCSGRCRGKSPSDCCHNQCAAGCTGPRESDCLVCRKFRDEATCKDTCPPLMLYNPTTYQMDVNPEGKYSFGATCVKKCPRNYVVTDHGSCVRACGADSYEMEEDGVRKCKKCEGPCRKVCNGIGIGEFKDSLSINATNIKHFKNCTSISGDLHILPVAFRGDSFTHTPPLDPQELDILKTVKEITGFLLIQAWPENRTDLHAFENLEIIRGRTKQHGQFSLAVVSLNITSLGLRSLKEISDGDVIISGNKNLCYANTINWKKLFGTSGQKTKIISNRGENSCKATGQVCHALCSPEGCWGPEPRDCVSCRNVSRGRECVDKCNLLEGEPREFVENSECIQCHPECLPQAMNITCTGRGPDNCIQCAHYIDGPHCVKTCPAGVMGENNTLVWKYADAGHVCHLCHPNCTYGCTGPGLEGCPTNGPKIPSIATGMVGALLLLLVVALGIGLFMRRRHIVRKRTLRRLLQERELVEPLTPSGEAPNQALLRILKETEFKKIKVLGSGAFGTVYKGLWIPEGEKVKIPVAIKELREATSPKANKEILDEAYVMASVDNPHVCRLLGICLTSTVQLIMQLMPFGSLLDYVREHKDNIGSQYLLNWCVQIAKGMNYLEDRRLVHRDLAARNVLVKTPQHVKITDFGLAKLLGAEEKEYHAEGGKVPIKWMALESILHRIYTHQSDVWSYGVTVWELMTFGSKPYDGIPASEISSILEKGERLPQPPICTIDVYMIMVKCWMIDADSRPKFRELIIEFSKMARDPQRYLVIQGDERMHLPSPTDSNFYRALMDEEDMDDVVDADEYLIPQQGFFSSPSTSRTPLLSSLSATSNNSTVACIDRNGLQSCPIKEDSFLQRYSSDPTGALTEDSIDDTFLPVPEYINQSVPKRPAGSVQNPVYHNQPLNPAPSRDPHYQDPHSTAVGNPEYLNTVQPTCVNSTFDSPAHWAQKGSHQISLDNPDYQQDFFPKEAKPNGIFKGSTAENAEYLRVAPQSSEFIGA

On to `COc1cc(N2CCC(N3CCN(C)CC3)CC2)ccc1Nc1ncc(Cl)c(Nc2ccccc2P(C)(C)=O)n1` [Birgatinib, reference compound], for which, in test [1] (15 mg/kg oral daily, 13 consecutive days), the “TGI (the tumor inhibition value)” value is recorded as 8.6%. Besides, the “Tumor volume Day 0” value in test [1] (15 mg/kg/day oral, Day 0) was found to be 84 mm^3. Further, the “Tumor volume Day 2” value in test [1] (15 mg/kg/day oral, Day 2) amounted to 124 mm^3. Further, in test [1] (15 mg/kg/day oral, Day 5), the “Tumor volume Day 5” value came out at 292 mm^3. In addition, in test [1] (15 mg/kg/day oral, Day 8), the “Tumor volume Day 8” value is listed as 477 mm^3. The “Tumor volume Day 10” value in test [1] (15 mg/kg/day oral, Day 10) was found to be 646 mm^3. In addition, the “Tumor volume Day 12” value in test [1] (15 mg/kg/day oral, Day 12) came out at 880 mm^3. The “Tumor volume Day 13” value in test [1] (15 mg/kg/day oral, Day 13) stood at 965 mm^3.

For `COc1cc(N2CCC(N3CCN(C)CC3)CC2)ccc1Nc1ncc(Cl)c(Nc2ccc3[nH]cnc3c2P(C)(C)=O)n1` [Comparative Example 1, reference compound], the IC50 is greater than 5000 nM in test [2] and 1010 nM in test [3]. Also, the “inhibitory effect on Ba/F3 cells with three mutations (EGFR Δ19del/T790M/C797S)” value in test [2] (in words) was “almost no inhibitory effect”. Moreover, in test [3] (in words), the “inhibitory effect on the phosphorylation of Ba/F3 (Δ19del/T790M/C797S) cells” value is “almost no inhibitory effect”.

In the case of `COc1cc(N2CCC3(CCN(C)CC3)CC2)c(Cl)cc1Nc1ncc(Cl)c(Nc2ccc3sccc3c2P(C)(C)=O)n1` [Compound 1], in test [4], the IC50 amounted to 2.64 nM. Consider `COc1cc(N2CCC(N3CCN(C)CC3)CC2)ccc1Nc1ncc(Cl)c(Nc2ccc3cccnc3c2P(C)(C)=O)n1` [Compound 7], for which the IC50 in test [3] is 533 nM. With `COc1cc(N2CCC3(CC2)CN(C)C3)c(C)cc1Nc1ncc(Cl)c(Nc2ccc3nccnc3c2P(C)(C)=O)n1` [Compound 8], the IC50 in test [4] turned out to be 0.792 nM; in test [2] it was 275 nM; in test [3], 133 nM. Turning to `COc1cc(N2CCC3(CCN(C)CC3)CC2)c(Cl)cc1Nc1ncc(Cl)c(Nc2ccc3cccnc3c2P(C)(C)=O)n1` [Compound 10], the IC50 in test [2] is 6030 nM. On the same count and under the same terms, under `COc1cc(N2CCC(N3CCN(C)CC3)CC2)c(Cl)cc1Nc1ncc(Cl)c(Nc2ccc3ccccc3c2P(C)(C)=O)n1` [Compound 11] stands 180 nM; under `COc1cc(N2CCC3(CCN(C)CC3)CC2)c(Cl)cc1Nc1ncc(Cl)c(Nc2ccc3c(c2P(C)(C)=O)C(=O)CC3)n1` [Compound 14], 351 nM. Same read-out and setting: the result for `COc1cc(N2CCC3(CC2)CN(C)C3)c(C)cc1Nc1ncc(Cl)c(Nc2ccc3c(ccn3C)c2P(C)(C)=O)n1` [Compound 15] reads 583 nM. Regarding `COc1cc(N2CCC3(CC2)CN(C)C3)c(C)cc1Nc1ncc(Cl)c(Nc2ccc3c(c2P(C)(C)=O)CCC3)n1` [Compound 16], the IC50 in test [4] was 0.491 nM; in test [2] it was 211 nM.

`COc1cc(N2CCC3(CC2)CN(C)C3)c(C)cc1Nc1ncc(OC(=O)N(C)C)c(Nc2ccc3ccccc3c2P(C)(C)=O)n1` [Compound 17]: the figures for the IC50 in test [4] and in test [2] were 856 nM and 4750 nM, respectively. In the same order, the values of `COc1ccc(OCCNCc2cnccn2)cc1Nc1ncc(Cl)c(Nc2ccc3ccccc3c2P(C)(C)=O)n1` [Compound 18] are 25.3 nM and 1650 nM. For `COc1ccc(OCCNCc2cccnc2)cc1Nc1ncc(Cl)c(Nc2ccc3ccccc3c2P(C)(C)=O)n1` [Compound 19], in that order: 12.9 nM and 1220 nM. For `COc1cc(N2CCC3(CC2)CN(CCN(C)C)C3)c(C)cc1Nc1ncc(Cl)c(Nc2ccc3ccccc3c2P(C)(C)=O)n1` [Compound 20], in that order: less than 0.0508 nM and 214 nM. With `COc1cc(N2CCC3(CC2)CN(C)C3)c(C)cc1Nc1nc(Nc2ccc3ccccc3c2P(C)(C)=O)c2cc[nH]c2n1` [Compound 22], in test [2], the IC50 was 249 nM. On the same count and under the same terms, under `COc1cc(N2CCC3(CC2)CN(C)C3)c(C)cc1Nc1ncc(C(C)=O)c(Nc2ccc3ccccc3c2P(C)(C)=O)n1` [Compound 24] stands 4080 nM. Regarding `COc1cc(N2CCC3(CC2)CN(C)C3)c(C)cc1Nc1ncc(C2CC2)c(Nc2ccc3ccccc3c2P(C)(C)=O)n1` [Compound 25], the IC50 in test [4] came out at 1.79 nM; in test [2] it was 642 nM. In the same order, the values of `COc1cc(N2CCC3(CC2)CN(C)C3)c(C)cc1Nc1ncc(C#N)c(Nc2ccc3ccccc3c2P(C)(C)=O)n1` [Compound 26] are 0.679 nM and 764 nM.

For `COc1cc(N2CCC3(CC2)CN(C)C3)c(C)cc1Nc1ncc(-c2nnc(C)o2)c(Nc2ccc3ccccc3c2P(C)(C)=O)n1` [Compound 27], the IC50 in test [2] is 2710 nM. For the compound `COc1ccc(OCCNS(C)(=O)=O)cc1Nc1ncc(Cl)c(Nc2ccc3ccccc3c2P(C)(C)=O)n1` [Compound 29], the IC50 in test [4] was determined as 67.6 nM; in test [2], 1590 nM.

With `COc1cc(N2CCC3(CC2)CN(CCO)C3)c(C)cc1Nc1ncc(Cl)c(Nc2ccc3ccccc3c2P(C)(C)=O)n1` [Compound 30], in test [2], the IC50 amounted to 290 nM. The same measure, in the same setting: under `COc1cc(N2CCC3(CC2)CN(C(C)C)C3)c(C)cc1Nc1ncc(Cl)c(Nc2ccc3sccc3c2P(C)(C)=O)n1` [Compound 31] stands 242 nM. With `CCc1cc(Nc2ncc(Br)c(Nc3ccc4ccccc4c3P(C)(C)=O)n2)c(OC)cc1N1CCC2(CC1)CN(C)C2` [Compound 32], the IC50 in test [2] was 79 nM; in test [3], 57 nM. `COc1cc(N2CCC3(CC2)CN(C(C)C)C3)c(C)cc1Nc1ncc(Br)c(Nc2ccc3ccccc3c2P(C)(C)=O)n1` [Compound 33]: the IC50 in test [2] was 162 nM.

Regarding `COc1cc(N2CCC(N3CCN(C)CC3)CC2)ccc1Nc1ncc(Cl)c(Nc2ccc3c(c2P(C)(C)=O)CCC3)n1` [Compound 35], the IC50 in test [2] was found to be 533 nM.

As for `COc1cc(N2CCC(N3CCN(C)CC3)CC2)ccc1Nc1ncc(Br)c(Nc2ccc3c(c2P(C)(C)=O)CCC3)n1` [Compound 38], the IC50 in test [2] was 371 nM. In the case of `COc1cc(N2CCC3(CC2)CN(CCN(C)C)C3)c(C)cc1Nc1ncc(Cl)c(Nc2ccc3nccnc3c2P(C)(C)=O)n1` [Compound 39], the IC50 in test [2] was 187 nM; in test [3], 195 nM. On to `COc1cc(N2CCC(N3CCN(C)CC3)CC2)ccc1Nc1ncc(Cl)c(Nc2ccc3scnc3c2P(C)(C)=O)n1` [Compound 42], for which the IC50 in test [2] came out at 442 nM.

Turning to `COc1cc(N2CCC(N3CCN(C)CC3)CC2)ccc1Nc1ncc(Cl)c(Nc2ccc3cccnc3c2P(C)(C)=O)n1` [Compound 43], the IC50 in test [2] came to 496 nM.

On to `COc1cc(N2CCC(N(C)C)CC2)c(C)cc1Nc1ncc(Br)c(Nc2ccc3nccnc3c2P(C)(C)=O)n1` [Compound 44], for which the IC50 in test [3] stood at 9 nM. As to `COc1cc(N2CCN(C)CC2)c(C)cc1Nc1ncc(Br)c(Nc2ccc3nccnc3c2P(C)(C)=O)n1` [Example 45], the figures for the IC50 in test [2] and in test [3] were 87 nM and 27 nM, respectively. Turning to `COc1cc(N2CCC(N3CCN(C)CC3)CC2)c(C)cc1Nc1ncc(C)c(Nc2ccc3nccnc3c2P(C)(C)=O)n1` [Example 48], the IC50 in test [2] was 152 nM. Same read-out and setting: the result for `COc1cc(N2CCC(N3CCN(C)CC3)CC2)c(C)cc1Nc1ncc(Br)c(Nc2ccc3scnc3c2P(C)(C)=O)n1` [Example 51] reads 36 nM. The same measure, in the same setting: under `COc1cc(N2CCC(N3CCN(C)CC3)CC2)c(Cl)cc1Nc1ncc(Br)c(Nc2ccc3nccnc3c2P(C)(C)=O)n1` [Example 54] stands 39 nM. For the compound `COc1cc(N2CCC3(CCN(C)CC3)CC2)c(C)cc1Nc1ncc(Br)c(Nc2ccc3nccnc3c2P(C)(C)=O)n1` [Example 57], in test [2], the IC50 turned out to be 26.8 nM. Same read-out and setting: under `CCc1cc(Nc2ncc(Br)c(Nc3ccc4nccnc4c3P(C)(C)=O)n2)c(OC)cc1N1CCC2(CCN(C)CC2)CC1` [Example 58] stands 18.6 nM.
